# US11331289B2, “Antimicrobial composition” (priority 2017, dated 2022)
# What was measured:
# [1] = tested on: Methicillin-Resistant Staphylococcus aureus (MRSA) 16116, 16110; assay: Oxyclo MIC of MRSA strains; assay type: cell-based
# S. aureus n°16 302 = assay: Time-killing curve, broth macrodilution; assay type: cell-based, Staphylococcus aureus
# Description: (§1) The time-killing curve is used to determine the bactericidal or bacteriostatic activity of the antibimicrobial substances. Time-killing curves of Oxyclozanide against canine isolates of Staphylococcus aureus and Staphylococcus pseudintermedius were obtained using broth macrodilution method. After contact of different fixed amounts of Oxyclozanide with an inoculum, viable bacteria are counted immediately after contact and after 1, 3, 6 and 24 hours. Counting is performed on agar medium without antimicrobial substance.
# (§2) Results are analyzed by plotting log10 CFU/ml versus time for each tested concentration. Bactericidal activity as defined by 99.9% killing of the inoculum is determined from time-killing curves by noting the presence of a ≥3 log10 decrease in CFU/ml.
# (§3) Bacterial strains were sub-cultured twice from one cryobead on Mueller Hinton agar and incubated at 37° C. for 18-24 hours. From the second subcultures, isolated colonies were transferred into tubes containing 2 ml of Mueller Hinton Broth in order to obtain bacterial suspensions at 10^8 CFU/ml, knowing that an optical density of 0.1 at 620 nm corresponds to bacterial suspension at 10^8 CFU/ml. Then, bacterial suspensions were adjusted between 5 10^7 and 1 10^8 CFU/ml by dilution in Mueller Hinton broth.
# (§4) For each concentration of Oxyclozanide to be tested, 50 μl of working solution concentrated 100× and […] of inoculum were added to 5 ml of Mueller-Hinton broth. Thus, the range of tested concentrations was from 0.125 to 8 μg/ml and the concentration of micro-organism was between 1 10^6 and 2 10^6 CFU/ml.
# (§5) At the same time, a tube without Oxyclozanide was prepared: 50 μl of DMSO and 100 μl of inoculum were added to 5 ml of Mueller-Hinton broth and used as growth control. Tubes were incubated at 36° C. under agitation.
# (§6) The numbers of viable bacteria were determined immediately after contact (TO) and after 1, 3, 6 and 24 h of incubation.
# (§7) At each time, samples of each tube were taken and dilutions were performed in Mueller-Hinton broth. Then, dilutions were spread on Mueller Hinton agar with spiral plater. After 18 h of incubation at 36° C., counting of colonies was performed with automatic colony counter which determine the concentrations of viable bacteria. The technique employed made it possible to quantify bacterial concentrations as low as 20 CFU/ml.
# (§8) Time-killing curves were plotted for each concentration of Oxyclozanide using Microsoft Excel software. The number or surviving bacteria was expressed as log10 CFU/ml. The time-killing curves of each strain represent the decrease in the viable bacteria count as a function of time for the Oxyclozanide concentrations concerned.
# (§9) Bactericidal activity as defined by 99.9% killing of the inoculum is determined from time-killing curves by noting the presence of a ≥3 log10 decrease in CFU/ml.
# S. aureus n°16 315 = assay: Time-killing curve, broth macrodilution; assay type: cell-based, Staphylococcus aureus
# Description: as §1, §2, §3, §4, §5, §6, §7, §8, §9
compound,measurement,setting,value
O=C(Nc1cc(Cl)cc(Cl)c1O)c1c(O)c(Cl)cc(Cl)c1Cl [Oxyclozanide],MIC,[1]; MRSA 16110,1 mg/L
same,MIC,[1]; MRSA 16116,0.5 mg/L
same,Bacteria reducing rate,"S. aureus n°16 302; 0.25 μg/ml (½ MIC), 1 h",0.0 Δ log10 CFU/ml
same,Bacteria reducing rate,"S. aureus n°16 302; 0.25 μg/ml (½ MIC), 3 h",0.1 Δ log10 CFU/ml
same,Bacteria reducing rate,"S. aureus n°16 302; 0.25 μg/ml (½ MIC), 6 h",0.6 Δ log10 CFU/ml
same,Bacteria reducing rate,"S. aureus n°16 302; 0.25 μg/ml (½ MIC), 24 h",1.7 Δ log10 CFU/ml
same,Bacteria reducing rate,"S. aureus n°16 302; 0.5 μg/ml (MIC), 1 h",0.0 Δ log10 CFU/ml
same,Bacteria reducing rate,"S. aureus n°16 302; 0.5 μg/ml (MIC), 3 h",0.0 Δ log10 CFU/ml
same,Bacteria reducing rate,"S. aureus n°16 302; 0.5 μg/ml (MIC), 6 h",−0.3 Δ log10 CFU/ml
same,Bacteria reducing rate,"S. aureus n°16 302; 0.5 μg/ml (MIC), 24 h",1.6 Δ log10 CFU/ml
same,Bacteria reducing rate,"S. aureus n°16 302; 1 μg/ml (2 MIC), 1 h",0.0 Δ log10 CFU/ml
same,Bacteria reducing rate,"S. aureus n°16 302; 1 μg/ml (2 MIC), 3 h",0.0 Δ log10 CFU/ml
same,Bacteria reducing rate,"S. aureus n°16 302; 1 μg/ml (2 MIC), 6 h",−0.2 Δ log10 CFU/ml
same,Bacteria reducing rate,"S. aureus n°16 302; 1 μg/ml (2 MIC), 24 h",1.5 Δ log10 CFU/ml
same,Viable bacteria count,"S. aureus n°16 302; 1 μg/ml (2 MIC), 24 h",7.9 Log10 CFU/ml
same,Bacteria reducing rate,"S. aureus n°16 302; 2 μg/ml (4 MIC), 1 h",0.0 Δ log10 CFU/ml
same,Bacteria reducing rate,"S. aureus n°16 302; 2 μg/ml (4 MIC), 3 h",−0.1 Δ log10 CFU/ml
same,Bacteria reducing rate,"S. aureus n°16 302; 2 μg/ml (4 MIC), 6 h",−0.5 Δ log10 CFU/ml
same,Viable bacteria count,"S. aureus n°16 302; 2 μg/ml (4 MIC), 6 h",6.0 Log10 CFU/ml
same,Bacteria reducing rate,"S. aureus n°16 302; 2 μg/ml (4 MIC), 24 h",−2.5 Δ log10 CFU/ml
same,Viable bacteria count,"S. aureus n°16 302; 4 μg/ml (8 MIC), 0 h",6.5 Log10 CFU/ml
same,Bacteria reducing rate,"S. aureus n°16 302; 4 μg/ml (8 MIC), 1 h",−0.2 Δ log10 CFU/ml
same,Bacteria reducing rate,"S. aureus n°16 302; 4 μg/ml (8 MIC), 3 h",−0.7 Δ log10 CFU/ml
same,Viable bacteria count,"S. aureus n°16 302; 4 μg/ml (8 MIC), 3 h",5.8 Log10 CFU/ml
same,Bacteria reducing rate,"S. aureus n°16 302; 4 μg/ml (8 MIC), 6 h",−2.3 Δ log10 CFU/ml
same,Bacteria reducing rate,"S. aureus n°16 302; 4 μg/ml (8 MIC), 24 h",−4.1 Δ log10 CFU/ml
same,Viable bacteria count,"S. aureus n°16 302; 4 μg/ml (8 MIC), 24 h",2.4 Log10 CFU/ml
same,Bacteria reducing rate,"S. aureus n°16 302; 8 μg/ml (16 MIC), 1 h",−0.8 Δ log10 CFU/ml
same,Viable bacteria count,"S. aureus n°16 302; 8 μg/ml (16 MIC), 1 h",5.7 Log10 CFU/ml
same,Bacteria reducing rate,"S. aureus n°16 302; 8 μg/ml (16 MIC), 3 h",−2.3 Δ log10 CFU/ml
same,Bacteria reducing rate,"S. aureus n°16 302; 8 μg/ml (16 MIC), 6 h",−3.8 Δ log10 CFU/ml
same,Viable bacteria count,"S. aureus n°16 302; 8 μg/ml (16 MIC), 6 h",2.7 Log10 CFU/ml
same,Bacteria reducing rate,"S. aureus n°16 302; 8 μg/ml (16 MIC), 24 h",−5.2 Δ log10 CFU/ml
same,Bacteria reducing rate,"S. aureus n°16 315; 0.25 μg/ml (½ MIC), 1 h",0.3 Δ log10 CFU/ml
same,Viable bacteria count,"S. aureus n°16 315; 0.25 μg/ml (½ MIC), 1 h",6.7 Log10 CFU/ml
same,Bacteria reducing rate,"S. aureus n°16 315; 0.25 μg/ml (½ MIC), 3 h",0.3 Δ log10 CFU/ml
same,Viable bacteria count,"S. aureus n°16 315; 0.25 μg/ml (½ MIC), 3 h",6.7 Log10 CFU/ml
same,Bacteria reducing rate,"S. aureus n°16 315; 0.25 μg/ml (½ MIC), 6 h",0.7 Δ log10 CFU/ml
same,Bacteria reducing rate,"S. aureus n°16 315; 0.25 μg/ml (½ MIC), 24 h",1.8 Δ log10 CFU/ml
same,Bacteria reducing rate,"S. aureus n°16 315; 0.5 μg/ml (MIC), 1 h",−0.1 Δ log10 CFU/ml
same,Bacteria reducing rate,"S. aureus n°16 315; 0.5 μg/ml (MIC), 3 h",0.1 Δ log10 CFU/ml
same,Viable bacteria count,"S. aureus n°16 315; 0.5 μg/ml (MIC), 3 h",6.6 Log10 CFU/ml
same,Bacteria reducing rate,"S. aureus n°16 315; 0.5 μg/ml (MIC), 6 h",−0.2 Δ log10 CFU/ml
same,Bacteria reducing rate,"S. aureus n°16 315; 0.5 μg/ml (MIC), 24 h",0.5 Δ log10 CFU/ml
same,Viable bacteria count,"S. aureus n°16 315; 0.5 μg/ml (MIC), 24 h",7.0 Log10 CFU/ml
same,Bacteria reducing rate,"S. aureus n°16 315; 1 μg/ml (2 MIC), 1 h",0.0 Δ log10 CFU/ml
same,Bacteria reducing rate,"S. aureus n°16 315; 1 μg/ml (2 MIC), 3 h",0.1 Δ log10 CFU/ml
same,Viable bacteria count,"S. aureus n°16 315; 1 μg/ml (2 MIC), 3 h",6.6 Log10 CFU/ml
same,Bacteria reducing rate,"S. aureus n°16 315; 1 μg/ml (2 MIC), 6 h",−0.3 Δ log10 CFU/ml
same,Bacteria reducing rate,"S. aureus n°16 315; 1 μg/ml (2 MIC), 24 h",−1.2 Δ log10 CFU/ml
same,Bacteria reducing rate,"S. aureus n°16 315; 2 μg/ml (4 MIC), 1 h",0.1 Δ log10 CFU/ml
same,Viable bacteria count,"S. aureus n°16 315; 2 μg/ml (4 MIC), 1 h",6.5 Log10 CFU/ml
same,Bacteria reducing rate,"S. aureus n°16 315; 2 μg/ml (4 MIC), 3 h",0.2 Δ log10 CFU/ml
same,Viable bacteria count,"S. aureus n°16 315; 2 μg/ml (4 MIC), 3 h",6.6 Log10 CFU/ml
same,Bacteria reducing rate,"S. aureus n°16 315; 2 μg/ml (4 MIC), 6 h",−1.1 Δ log10 CFU/ml
same,Bacteria reducing rate,"S. aureus n°16 315; 2 μg/ml (4 MIC), 24 h",−2.3 Δ log10 CFU/ml
same,Bacteria reducing rate,"S. aureus n°16 315; 4 μg/ml (8 MIC), 1 h",0.0 Δ log10 CFU/ml
same,Bacteria reducing rate,"S. aureus n°16 315; 4 μg/ml (8 MIC), 3 h",−0.7 Δ log10 CFU/ml
same,Viable bacteria count,"S. aureus n°16 315; 4 μg/ml (8 MIC), 3 h",5.7 Log10 CFU/ml
same,Bacteria reducing rate,"S. aureus n°16 315; 4 μg/ml (8 MIC), 6 h",−1.8 Δ log10 CFU/ml
same,Viable bacteria count,"S. aureus n°16 315; 4 μg/ml (8 MIC), 6 h",4.6 Log10 CFU/ml
same,Bacteria reducing rate,"S. aureus n°16 315; 4 μg/ml (8 MIC), 24 h",−5.1 Δ log10 CFU/ml
same,Bacteria reducing rate,"S. aureus n°16 315; 8 μg/ml (16 MIC), 1 h",0.1 Δ log10 CFU/ml
same,Bacteria reducing rate,"S. aureus n°16 315; 8 μg/ml (16 MIC), 3 h",−1.5 Δ log10 CFU/ml
same,Viable bacteria count,"S. aureus n°16 315; 8 μg/ml (16 MIC), 3 h",4.8 Log10 CFU/ml
same,Bacteria reducing rate,"S. aureus n°16 315; 8 μg/ml (16 MIC), 6 h",−2.3 Δ log10 CFU/ml
same,Bacteria reducing rate,"S. aureus n°16 315; 8 μg/ml (16 MIC), 24 h",−5.0 Δ log10 CFU/ml
